Laboratory results: patent US20250129095A1, “ANNULATED 2-AMINO-3-CYANO THIOPHENES AND DERIVATIVES FOR THE TREATMENT OF CANCER” (Boehringer Ingelheim Int'l GmbH Corp., priority 2021, published 2025)
pIC50: −log10 of the molar value.

How the values were obtained:
[1] = system: GP2D cells; assay: GP2D proliferation assay (120 h) (colorectal cancer, G12D); assay type: cell-based
Procedure: GP2D cells (ATCC No. CRL-5807) are dispensed into white 384-well plates, flat and white bottom (Perkin Elmer, 6007680) at a density of 500 cells per well in 40 μl DMEM (Sigma, D6429)+1× GlutaMAX (Gibco, 35050038)+10% FCS (fetal calf serum). […] Compounds (10 mM stock in DMSO) are added at logarithmic dose series using the HP Digital Dispenser D300 (Tecan), including DMSO controls and normalizing for added DMSO. For the TO time point measurement, untreated cells are analyzed at the time of compound addition. Plates are incubated for 120 h, and cell viability is measured using CellTiter-Glo luminescent cell viability reagent (Promega product code G7570). Viability (stated as percent of control) is defined as relative luminescence units RLU of each well divided by the RLU of cells in DMSO controls.

[2] = Caco-2 assay; assay type: in vitro ADME; conditions: human, 10 μM test compound, pH 7.4; for Papp A→B at 90 min, 10 μM: Caco-2, apical to basolateral (a-b) permeability, read-out: Caco PappAB; for efflux ratio at 90 min, 10 μM: Caco-2 efflux ratio PappBA/PappAB, read-out: Caco ER
Description: The assay provides information on the potential of a compound to pass the cell membrane, on the extent of oral absorption as well as on whether the compound is actively transported by uptake and/or efflux transporters. Permeability measurements across polarized, confluent Caco-2 cell monolayers grown on permeable filter supports (Corning, catalog #3391) are used. […] The receiver and donor compartments contain 0.25% bovine serum albumine (BSA) in assay buffer. Passive diffusion and/or active transport of compounds across the monolayer is measured in both apical to basolateral (a-b) and basolateral to apical (b-a) direction. a-b permeability (PappAB) represents drug absorption from the intestine into the blood and b-a permeability (PappBA) drug secretion from the blood back into the intestine via both passive permeability as well as active transport mechanisms mediated by efflux and uptake transporters that are expressed on the Caco-2 cells. After a pre-incubation of 25-30 min at 37° C., at predefined time points (0, 30, 60 and 90 min), samples were taken from the receiver and donor compartment, respectively.
Concentrations of test compounds in samples were measured by HPLC/MS/MS, samples from the donor compartment were diluted 1:50 (v:v) with assay buffer, samples from receiver compartment were measured without dilution.
Apparent permeabilities in a-b (PappAB) and b-a (PappBA) directions are calculated according to the formula:
[formula] • Vrec [mL]: buffer volume in receiver compartment • Cdon [pmol/mL]: concentration of test compound in donor compartment at t=0 • ΔCrec: difference between concentrations of test compound in receiver compartment at start and end of incubation time • Δt: Incubation time • Vrec·ΔCrec/Δt [[…]]: Amount of compound transferred to receiver compartment per time • A [cm^2]: filter surface
Caco-2 efflux ratios (ER) are calculated as the ratio of PappBA/PappAB.

Structure (SMILES) | pIC50 [1] | Papp A→B at 90 min, 10 μM [2] [×10⁻⁶ cm/s] | efflux ratio at 90 min, 10 μM [2]
C[C@H](Oc1cc(O[C@@H]2CNC2(C)C)nc(-c2noc3c2CCC[C@@]32CCCc3sc(N)c(C#N)c32)n1)[C@@H]1C[C@@H](F)CN1C [II-31] | 9.00 | 0.8 | 50.7
C[C@H](Oc1cc(O[C@@H]2CNC[C@@H]2F)nc(-c2noc3c2CCC[C@@]32CCCc3sc(N)c(C#N)c32)n1)[C@@H]1CCCN1C [II-29] | 8.05 | 0.9 | 25.5
C[C@H](Oc1cc(O[C@@H]2CNC2(C)C)nc(-c2noc3c2CCC[C@@]32CCCc3sc(N)c(C#N)c32)n1)[C@@H]1CCCN1C [II-9] |  | 0.2 | 132
C[C@H](Oc1cc(N(C)CCN(C)C)nc(-c2noc3c2CCC[C@@]32CCCc3sc(N)c(C#N)c32)n1)[C@@H]1CCCN1C [II-20] |  | 0.8 | 38
C[C@H](Oc1cc(Nc2ncco2)nc(-c2noc3c2CCC[C@@]32CCCc3sc(N)c(C#N)c32)n1)[C@@H]1CCCN1C [II-13] |  | 5.2 | 3.1
C[C@H](Oc1cc(Nc2ccncn2)nc(-c2noc3c2CCC[C@@]32CCCc3sc(N)c(C#N)c32)n1)[C@@H]1CCCN1C [II-15] |  | 2 | 14.5
COc1c(OCC2(N(C)C)COC2)nc(-c2noc3c2CCC[C@@]32CCCc3sc(N)c(C#N)c32)nc1O[C@@H](C)[C@@H]1CCCN1C [II-25] | 7.77 | 2.5 | 13.6
COC[C@H](C)Nc1cc(O[C@@H](C)[C@@H]2CCCN2C)nc(-c2onc3c2CCC[C@@]32CCCc3sc(N)c(C#N)c32)n1 [Example I-5] |  | 4.3 | 7.7
C[C@H](Oc1cc(Oc2cncnc2)nc(-c2onc3c2CCC[C@@]32CCCc3sc(N)c(C#N)c32)n1)[C@@H]1CCCN1C [Example I-3] | 7.92 | 18 | 1.3
C[C@H](Oc1cc(N(C)C)nc(-c2noc3c2CCC[C@@]32CCCc3sc(N)c(C#N)c32)n1)[C@@H]1CCCN1C [II-10] |  | 7.6 | 3
CO[C@@H]1C[C@@H]([C@H](C)Oc2cc(O[C@@H]3CNC3(C)C)nc(-c3noc4c3CCC[C@@]43CCCc4sc(N)c(C#N)c43)n2)N(C)C1 [II-30] |  | 0.2 | 125
C[C@H](Oc1cc(OCC2(N(C)C)COC2)nc(-c2onc3c2CCC[C@@]32CCCc3sc(N)c(C#N)c32)n1)[C@@H]1CCCN1C [Example I-8] | 7.96 |  | 
C[C@H](Oc1cc(Oc2cncnc2)nc(-c2noc3c2CCC[C@@]32CCCc3sc(N)c(C#N)c32)n1)[C@@H]1CCCN1C [II-1] | 8.00 | 17 | 1.5
C[C@H](Oc1cc(Oc2nccs2)nc(-c2noc3c2CCC[C@@]32CCCc3sc(N)c(C#N)c32)n1)[C@@H]1CCCN1C [II-2] |  |  | 0.5
C[C@H](Oc1cc(OCCO)nc(-c2noc3c2CCC[C@@]32CCCc3sc(N)c(C#N)c32)n1)[C@@H]1CCCN1C [II-6] |  | 1.2 | 20.8
COCCOc1cc(O[C@@H](C)[C@@H]2CCCN2C)nc(-c2noc3c2CCC[C@@]32CCCc3sc(N)c(C#N)c32)n1 [II-5] |  | 14 | 1.4
C[C@H]1CN(C)CCCN1c1cc(O[C@@H]2CNC2(C)C)nc(-c2noc3c2CCC[C@@]32CCCc3sc(N)c(C#N)c32)n1 [II-28] | 7.70 |  | 
C[C@H](Oc1cc(Nc2ccccn2)nc(-c2noc3c2CCC[C@@]32CCCc3sc(N)c(C#N)c32)n1)[C@@H]1CCCN1C [II-16] |  |  | 3.1
C[C@H](Oc1cc(O[C@H]2CCOC2)nc(-c2noc3c2CCC[C@@]32CCCc3sc(N)c(C#N)c32)n1)[C@@H]1CCCN1C [II-4] | 6.75 | 8.6 | 3.7
C[C@H](Oc1cc(Nc2cccnn2)nc(-c2noc3c2CCC[C@@]32CCCc3sc(N)c(C#N)c32)n1)[C@@H]1CCCN1C [II-18] |  | 1.4 | 17.9
C[C@H](Oc1cc(OCC2(N(C)C)COC2)nc(-c2noc3c2CCC[C@@]32CCCc3sc(N)c(C#N)c32)n1)[C@@H]1CCCN1C [II-22] | 8.30 | 2.6 | 15.5
C[C@H](Oc1cc(OCC2(N(C)C)CC2)nc(-c2noc3c2CCC[C@@]32CCCc3sc(N)c(C#N)c32)n1)[C@@H]1CCCN1C [II-21] | 8.10 |  | 1.4
C[C@H](Oc1cc(Nc2ncccn2)nc(-c2noc3c2CCC[C@@]32CCCc3sc(N)c(C#N)c32)n1)[C@@H]1CCCN1C [II-17] | 6.44 | 3.9 | 5
C[C@H](Oc1cc(Nc2ccccn2)nc(-c2onc3c2CCC[C@@]32CCCc3sc(N)c(C#N)c32)n1)[C@@H]1CCCN1C [Example I-6] |  |  | 2.5
